Source: US20130122024A1, “NEW BINDER-DRUG CONJUGATES (ADCS) AND USE THEREOF” (Bayer Intellectual Property GmbH, priority 2011, published 2013)
Values joined by “and” are separate entries in the source; they are usually repeats but may differ in a detail not shown here. Equal values may be shown once. Where a name gives a salt, the structure may show the parent alone. Square brackets hold non-standard residues; d marks the D form. Peptide text beside a SMILES is read from it. * marks the point of attachment. X2 = CC(C)[C@@H](C(=O)*)N(C)CCCCCCN1C(=O)CC(SC[C@H](N)C(=O)O)C1=O; X3 = CC(C)[C@@H](C(=O)*)N(C)CCOCCOCCOCCC(=O)NCCCC[C@H](N)C(=O)O; X4 = C[C@@H](O)[C@@H](C(=O)*)N(C)CCCCCC(=O)NCCCC[C@H](N)C(=O)O; X1 = CC(C)[C@@H](C(=O)*)N(C)CCCCCC(=O)NCCCC[C@H](N)C(=O)O; Dolaproine = CO[C@@H]([C@@H]1CCCN1)[C@@H](C)C(=O)O; Dil = CC[C@H](C)[C@H](NC)[C@@H](CC(=O)O)OC; Oxazinan2yl(1,2) = C1CCN(*)OC1

Tests used:
Caco-2 cells = assay: Caco-2 flux assay for cell permeability; type: in vitro ADME; settings: 2 hours, B to A
Description: The cell permeability of a substance can be investigated by means of in vitro testing in a flux assay using Caco-2 cells [M. D. Troutman and D. R. Thakker, Pharm. Res. 20 (8), 1210-1224 (2003)]. For this purpose, the cells were cultured for 15-16 days on 24-well filter plates. For the determination of permeation, the respective working example was applied in a HEPES buffer to the cells either apically (A) or basally (B) and incubated for 2 hours. After 0 hours and after 2 hours, samples were taken from the cis and trans compartments. The samples were separated by HPLC (Agilent 1200, Böblingen, Germany) using reverse phase columns. The HPLC system was coupled via a Turbo Ion Spray Interface to a Triple Quadropol mass spectrometer API 4000 (Applied Biosystems Applera, Darmstadt, Germany). The permeability was evaluated on the basis of a Papp value, which was calculated using the formula published by Schwab et al. [D. Schwab et al., J. Med. Chem. 46, 1716-1725 (2003)].

tubulin = assay: Fluorescence-based microtubule (tubulin) polymerization assay; type: biochemical
Description: Tubulin polymerization was investigated using the “Fluorescence-based Microtubule Polymerisation Assay Kit” from Cytoskeleton (Denver, Colo., USA; order number: BK011). With this assay, GTP is added to unpolymerized tubulin, allowing polymerization to take place spontaneously. The assay is based on the binding of the fluorophore 4′,6-di-amidino-2-phenylindole (DAPI) to tubulin. Free and bound DAPI can be differentiated on the basis of different emission spectra.
[…] In addition to the buffer control, paclitaxel, with a polymerization-increasing effect, and vinblastin, with a polymerization inhibiting effect, were run additionally as assay controls. Measurement was carried out using 96-well plates with a half base area. The kinetics of the tubulin polymerization were monitored in a Fluorimeter at 37° C. for 1 hour. The excitation wavelength was 355 nm, and emission was monitored at 460 nm. For the region of linear increase within the first 10 minutes, a calculation was made of the change in fluorescence per minute (ΔF/min), which represents the polymerization rate of the microtubuli. The potency of the test substances was quantified on the basis of their respective reduction of the polymerization rate.
The reduction in the tubulin polymerization rate occurs in dependence on the concentration of the test substance added.

[1] = concentration of toxophore 1 μM
[2] = concentration of toxophore 10 μM

Row | SMILES | Papp (B-A) (Caco-2 cells) [×10⁻⁶ cm/s] | Tubulin polymerization in the presence of toxophore in [%]. Tubulin polymerization rate at 1 μM MMAF set at 100% (tubulin; [1]) [%] | Tubulin polymerization in the presence of toxophore in [%]. Tubulin polymerization rate at 1 μM MMAF set at 100% (tubulin; [2]) [%] | Tubulin polymerization in the presence of toxophore in [%]. Tubulin polymerization rate at 1 μM MMAF set at 100% (tubulin; concentration of toxophore 1 μM, trifluoroacetate)
1 | CC[C@H](C)[C@@H]([C@@H](CC(=O)N1CCC[C@H]1[C@H](OC)[C@@H](C)C(=O)N[C@@H](Cc1c[nH]c2ccccc12)C(N)=O)OC)N(C)C(=O)[C@@H](NC(=O)[C@H](C(C)C)N(C)CCCC(=O)NNC(=O)CCCCCN1C(=O)CC(SC[C@H](N)C(=O)O)C1=O)C(C)C (stereo partly drawn) [Example 62, N-(4-{2-[6-(3-{[(2R)-2-Amino-2-carboxyethyl]sulphanyl}-2,5-dioxopyrrolidin-1-yl)hexanoyl]hydrazino}-4-oxobutyl)-N-methyl-L-valyl-N-[(3R,4S,5S)-1-{(2S)-2-[(1R,2R)-3-{[(2S)-1-amino-3-(1H-indol-3-yl)-1-oxopropan-2-yl]amino}-1-methoxy-2-methyl-3-oxopropyl]pyrrolidin-1-yl}-3-methoxy-5-methyl-1-oxoheptan-4-yl]-N-methyl-L-valinamide] | 0.2 | 88 | 25 | –
2 | CC[C@H](C)[C@@H]([C@@H](CC(=O)N1CCC[C@H]1[C@H](OC)[C@@H](C)C(=O)N[C@@H](Cc1c[nH]c2ccccc12)C(=O)O)OC)N(C)C(=O)[C@@H](NC(=O)[C@H](C(C)C)N(C)CCCC(=O)NNC(=O)CCCCCN1C(=O)CC(SC[C@H](N)C(=O)O)C1=O)C(C)C (stereo partly drawn) [Example 63, N-(4-{2-[6-(3-{[(2R)-2-Amino-2-carboxyethyl]sulphanyl}-2,5-dioxopyrrolidin-1-yl)hexanoyl]hydrazino}-4-oxobutyl)-N-methyl-L-valyl-N-[(3R,4S,5S)-1-{(2S)-2-[(1R,2R)-3-{[(1S)-1-carboxy-2-(1H-indol-3-yl)ethyl]amino}-1-methoxy-2-methyl-3-oxopropyl]pyrrolidin-1-yl}-3-methoxy-5-methyl-1-oxoheptan-4-yl]-N-methyl-L-valinamide] | 0.16 | – | 27 | –
3 | CC[C@H](C)[C@@H]([C@@H](CC(=O)N1CCC[C@H]1[C@H](OC)[C@@H](C)C(=O)N[C@@H](Cc1c[nH]c2ccccc12)C(N)=O)OC)N(C)C(=O)[C@@H](NC(=O)[C@H](C(C)C)N(C)CCCCCCN1C(=O)CC(SC[C@H](N)C(=O)O)C1=O)C(C)C (stereo partly drawn) [Example 65, N-[6-(3-{[(2R)-2-Amino-2-carboxyethyl]sulphanyl}-2,5-dioxopyrrolidin-1-yl)hexyl]-N-methyl-L-valyl-N-[(3R,4S,5S)-1-{(2S)-2-[(1R,2R)-3-{[(2S)-1-amino-3-(1H-indol-3-yl)-1-oxopropan-2-yl]amino}-1-methoxy-2-methyl-3-oxopropyl]pyrrolidin-1-yl}-3-methoxy-5-methyl-1-oxoheptan-4-yl]-N-methyl-L-valinamide] (X2-V[Dil][Dolaproine]W-NH2) | 0.5 | – | 64 | –
4 | CC[C@H](C)[C@@H]([C@@H](CC(=O)N1CCC[C@H]1[C@H](OC)[C@@H](C)C(=O)N[C@@H](Cc1c[nH]c2ccccc12)C(=O)O)OC)N(C)C(=O)[C@@H](NC(=O)[C@H](C(C)C)N(C)CCCCCCN1C(=O)CC(SC[C@H](N)C(=O)O)C1=O)C(C)C (stereo partly drawn) [Example 66, N-[6-(3-{[(2R)-2-Amino-2-carboxyethyl]sulphanyl}-2,5-dioxopyrrolidin-1-yl)hexyl]-N-methyl-L-valyl-N-[(3R,4S,5S)-1-{(2S)-2-[(1R,2R)-3-{[(1S)-1-carboxy-2-(1H-indol-3-yl)ethyl]amino}-1-methoxy-2-methyl-3-oxopropyl]pyrrolidin-1-yl}-3-methoxy-5-methyl-1-oxoheptan-4-yl]-N-methyl-L-valinamide] (X2-V[Dil][Dolaproine]W-OH) | 0.1 | – | 25 | –
5 | CC[C@H](C)[C@@H]([C@@H](CC(=O)N1CCC[C@H]1[C@H](OC)[C@@H](C)C(=O)N[C@@H](Cc1c[nH]c2ccccc12)C(=O)N1CCCCO1)OC)N(C)C(=O)[C@@H](NC(=O)[C@H](C(C)C)N(C)CCCCCCN1C(=O)CC(SC[C@H](N)C(=O)O)C1=O)C(C)C (stereo partly drawn) [Example 67, N-[6-(3-{[(2R)-2-Amino-2-carboxyethyl]sulphanyl}-2,5-dioxopyrrolidin-1-yl)hexyl]-N-methyl-L-valyl-N-[(3R,4S,5S)-1-{(2S)-2-[(1R,2R)-3-{[(2S)-3-(1H-indol-3-yl)-1-(1,2-oxazinan-2-yl)-1-oxopropan-2-yl]amino}-1-methoxy-2-methyl-3-oxopropyl]pyrrolidin-1-yl}-3-methoxy-5-methyl-1-oxoheptan-4-yl]-N-methyl-L-valinamide] (X2-V[Dil][Dolaproine]W-{Oxazinan2yl(1,2)}) | – | – | 35 | –
6 | CC[C@H](C)[C@@H]([C@@H](CC(=O)N1CCC[C@H]1[C@H](OC)[C@@H](C)C(=O)N[C@@H](Cc1ccccc1)C(=O)NCc1ccccc1)OC)N(C)C(=O)[C@@H](NC(=O)[C@H](C(C)C)N(C)CCCC(=O)NNC(=O)CCCCCN1C(=O)CC(SC[C@H](N)C(=O)O)C1=O)C(C)C (stereo partly drawn) [Example 69, N-(4-{2-[6-(3-{[(2R)-2-Amino-2-carboxyethyl]sulphanyl}-2,5-dioxopyrrolidin-1-yl)hexanoyl]hydrazino}-4-oxobutyl)-N-methyl-L-valyl-N-[(3R,4S,5S)-1-{(2S)-2-[(1R,2R)-3-{[(2S)-1-(benzylamino)-1-oxo-3-phenylpropan-2-yl]amino}-1-methoxy-2-methyl-3-oxopropyl]pyrrolidin-1-yl}-3-methoxy-5-methyl-1-oxoheptan-4-yl]-N-methyl-L-valinamide] | – | 110 | – | –
7 | CC[C@H](C)[C@@H]([C@@H](CC(=O)N1CCC[C@H]1[C@H](OC)[C@@H](C)C(=O)N[C@@H](Cc1c[nH]c2ccccc12)C(=O)N1CCCCO1)OC)N(C)C(=O)[C@@H](NC(=O)[C@H](C(C)C)N(C)CCOCCOCCOCCC(=O)NCCCC[C@H](N)C(=O)O)C(C)C [Example 107, N-[(18S)-18-Amino-18-carboxy-12-oxo-3,6,9-trioxa-13-azaoctadec-1-yl]-N-methyl-L-valyl-N-[(3R,4S,5S)-1-{(2S)-2-[(1R,2R)-3-{[(2S)-3-(1H-indol-3-yl)-1-(1,2-oxazinan-2-yl)-1-oxopropan-2-yl]amino}-1-methoxy-2-methyl-3-oxopropyl]pyrrolidin-1-yl}-3-methoxy-5-methyl-1-oxoheptan-4-yl]-N-methyl-L-valinamide trifluoroacetate] (X3-V[Dil][Dolaproine]W-{Oxazinan2yl(1,2)}) | – | – | – | 60% and 78%
8 | CC[C@H](C)[C@@H]([C@@H](CC(=O)N1CCC[C@H]1[C@H](OC)[C@@H](C)C(=O)N[C@@H](Cc1c[nH]c2ccccc12)C(=O)N1CCCCO1)OC)N(C)C(=O)[C@@H](NC(=O)[C@H]([C@@H](C)O)N(C)CCCCCC(=O)NCCCC[C@H](N)C(=O)O)C(C)C [Example 116, N-(6-{[(5S)-5-Amino-5-carboxypentyl]amino}-6-oxohexyl)-N-methyl-L-threonyl-N-[(3R,4S,5S)-1-{(2S)-2-[(1R,2R)-3-{[(2S)-3-(1H-indol-3-yl)-1-(1,2-oxazinan-2-yl)-1-oxopropan-2-yl]amino}-1-methoxy-2-methyl-3-oxopropyl]pyrrolidin-1-yl}-3-methoxy-5-methyl-1-oxoheptan-4-yl]-N-methyl-L-valinamide trifluoroacetate] (X4-V[Dil][Dolaproine]W-{Oxazinan2yl(1,2)}) | 0.18 | – | – | –
9 | CC[C@H](C)[C@@H]([C@@H](CC(=O)N1CCC[C@H]1[C@H](OC)[C@@H](C)C(=O)N[C@@H](Cc1ccc(O)cc1)C(=O)O)OC)N(C)C(=O)[C@@H](NC(=O)[C@H](C(C)C)N(C)CCCCCC(=O)NCCCC[C@H](N)C(=O)O)C(C)C [Example 118, N-(6-{[(5S)-5-Amino-5-carboxypentyl]amino}-6-oxohexyl)-N-methyl-L-valyl-N-[(3R,4S,5S)-1-{(2S)-2-[(1R,2R)-3-{[(1S)-1-carboxy-2-(4-hydroxyphenyl)ethyl]amino}-1-methoxy-2-methyl-3-oxopropyl]pyrrolidin-1-yl}-3-methoxy-5-methyl-1-oxoheptan-4-yl]-N-methyl-L-valinamide trifluoroacetate] (X1-V[Dil][Dolaproine]Y-OH) | – | 90 | 17 | –
